Results from patent US11634486B2, “Anti-SEZ6L2 antibodies and antibody drug conjugates” (Bluefin BioMedicine, Inc., priority 2016, dated 2023).

System: small cell lung cancer cell line NCI-H209
Assay: ADC combined with PARP inhibitor, cell viability
Assay type: cell-based, human
Conditions: olaparib 10 nM to 10 uM, six days
Experimental: Briefly, the small cell lung cancer cell line NCI-H209, which expresses ˜10,000 copies of SEZ6L2 on the cell surface, was seeded onto 96 well plate at 5000 cells/well Immediately after seeding, 10 pM of 3E2-PBD or isotype control hIgG-PBD (bearing a drug antibody ratio (DAR) of 1.7 and 2.5 respectively) were added to the wells in complete culture medium. A PARP inhibitor (olaparib) was then added to these wells such that the final concentration ranged from 10 nM to 10 uM. The PARP inhibitor was also tested on cells without an ADC. Each treatment was replicated in 2 wells and after six days, the PARP inhibitor plus modulator-mediated PBD cytotoxicity was assessed by quantifying the remaining number of live cells using Cell Titer Glo™. Cell viability was graphed by Prism™ using ratio of cell viability of test conditions to that of control wells treated with growth medium only.

O=C(c1cc(Cc2n[nH]c(=O)c3ccccc23)ccc1F)N1CCN(C(=O)C2CC2)CC1 [olaparib, reference compound]
percent viable cells, PARP inhibitor alone: responded in a dose dependent manner
